Reference: patent US20230233439A1, “METHOD FOR COSMETIC TREATMENT BY COMBINED ILLUMINATION AND APPLICATION OF A COMPOSITION COMPRISING NIACINAMIDE, AND ASSOCIATED DEVICE” (LIGHTINDERM, priority 2020, published 2023)

Tests used:
Assay type in all cases: cell-based
[1] = test system: procollagen-1; test: Procollagen-1 production by fibroblasts exposed to UVA and UVB; details: niacinamide 0.4 mg/ml combined with illumination at 660 nm, programs 3 and 8; compared with niacinamide alone and with illumination alone; FIG. 3
Procedure: The inflammation of the cells and the measurement of the antiaging effect are based on the irradiation of a cell culture with a combination of UVA and UVB. […] Pure niacinamide at a concentration of 0.4 mg/mL or 1.2 mg/mL is used. Attention is now focused on skin aging, known as “photoaging”, induced by UV exposure. One of the parameters of cutaneous aging observed clinically is the appearance of wrinkles associated in part with a decrease in collagen production by the cells of the dermis, the fibroblasts. […] The production of procollagen-1 produced by fibroblasts is measured in the supernatants obtained from the previously defined protocol in which the cells were illuminated either without any other treatment or in combination with niacinamide at a concentration of 0.4 mg/ml, and compared with treatment with niacinamide alone at a concentration of 0.4 mg/ml. The results are shown in FIG. 3 for illumination programs 3 and 8.

[2] = test system: interleukin-8; test: Protection of UVA/UVB-irradiated keratinocytes measured by interleukin-8 production
Procedure: (§1) The inflammation of the cells and the measurement of the antiaging effect are based on the irradiation of a cell culture with a combination of UVA and UVB. […] Pure niacinamide at a concentration of 0.4 mg/mL or 1.2 mg/mL is used. For the treatments inducing illumination at 660 nm, 10 different programs are evaluated. These programs are defined in Table 1 below. [table] […] Free radicals are reactive and induce an inflammatory cascade characterized by the production of proinflammatory proteins (p53, pro-opiomelanocortin (POMC), interleukins, etc.) which can be measured in the cell supernatant. […] According to the protocol, at T+48 h, the cell supernatant is collected and the concentrations of interleukins 6 and 8 are measured and compared to the concentrations of interleukins 6 and 8 produced by cells exposed to UV and not subjected to any of the three abovementioned treatments (UV control) and to untreated and non-irradiated cells (non-irradiated control). A degree of protection of the treated cells relative to the UV control is evaluated according to the following formula: Non-irradiated cells show 100% protection and irradiated cells show 0% protection. […]

[3] = test system: interleukin-6; test: Protection of UVA/UVB-irradiated keratinocytes measured by interleukin-6 production
Procedure: as §1

[4] = niacinamide 1.2 mg/ml combined with illumination at 660 nm, all illumination programs

NC(=O)c1cccnc1 [niacinamide]
production of procollagen-1 [1]: Increased production
protection of the skin cells (interleukin-8) compared with illumination alone at 660 nm [2, 4]: much greater protection
protection of cells exposed to UV (interleukin-8 concentration) ([2]; niacinamide 1.2 mg/ml combined with pulsed illumination at 660 nm, all 10 programs, relative to UV-exposed cells and/or niacinamide alone, effects particularly visible, FIG. 2): beneficial effect
protection of the skin cells (interleukin-6) compared with illumination alone at 660 nm [3, 4]: much greater protection
protection of cells exposed to UV (interleukin-6 concentration) ([3]; niacinamide 1.2 mg/ml combined with pulsed illumination at 660 nm, all 10 programs, relative to UV-exposed cells and/or niacinamide alone, FIG. 1): beneficial effect
